Numbers after ± are expanded uncertainties.
Assays:
[1] = excess molar enthalpy (molar enthalpy of mixing); xn = mol fraction of the nth substance listed; settings: 298.15 K, 100 kPa, Liquid, Calvet calorimetry
[2] = xn = mol fraction of the nth substance listed; settings: 298.15 K, 100 kPa, Liquid, Vibrating tube method
[3] = refractive index (Na D-line) (dimensionless); settings: 298.15 K; 101.33 kPa; Liquid; Standard Abbe refractometry
[4] = 298.15 K; 100 kPa; Liquid; Vibrating tube method

CCCCC(=O)OC [methyl pentanoate] + COC=O
Settings	excess molar enthalpy [kJ/mol]	mass density [kg/m3]
[1], x1 = 0.0272	0.059 ± 0.002	–
[1], x1 = 0.0583	0.112 ± 0.003	–
[1], x1 = 0.0932	0.171 ± 0.004	–
[1], x1 = 0.1292	0.23 ± 0.005	–
[1], x1 = 0.172	0.291 ± 0.006	–
[1], x1 = 0.2104	0.34 ± 0.008	–
[1], x1 = 0.2533	0.379 ± 0.008	–
[1], x1 = 0.2946	0.401 ± 0.009	–
[1], x1 = 0.3096	0.413 ± 0.009	–
[1], x1 = 0.3486	0.422 ± 0.009	–
[1], x1 = 0.3982	0.431 ± 0.009	–
[1], x1 = 0.4522	0.431 ± 0.009	–
[1], x1 = 0.5232	0.409 ± 0.009	–
[1], x1 = 0.6056	0.366 ± 0.008	–
[1], x1 = 0.6943	0.304 ± 0.007	–
[1], x1 = 0.7968	0.219 ± 0.005	–
[1], x1 = 0.8656	0.145 ± 0.003	–
[1], x1 = 0.93	0.084 ± 0.002	–
[2], x1 = 0.0555	–	956.19 ± 0.2
[2], x1 = 0.104	–	948.47 ± 0.2
[2], x1 = 0.1464	–	942.39 ± 0.21
[2], x1 = 0.2093	–	934.27 ± 0.21
[2], x1 = 0.2537	–	929.22 ± 0.22
[2], x1 = 0.3106	–	923.46 ± 0.22
[2], x1 = 0.3493	–	919.84 ± 0.23
[2], x1 = 0.4011	–	915.46 ± 0.23
[2], x1 = 0.4572	–	911.17 ± 0.24
[2], x1 = 0.5	–	908.17 ± 0.24
[2], x1 = 0.5539	–	904.69 ± 0.25
[2], x1 = 0.6081	–	901.55 ± 0.26
[2], x1 = 0.6522	–	899.15 ± 0.26
[2], x1 = 0.7258	–	895.5 ± 0.27
[2], x1 = 0.7765	–	893.24 ± 0.27
[2], x1 = 0.836	–	890.8 ± 0.28
[2], x1 = 0.9031	–	888.23 ± 0.29
[2], x1 = 1	–	884.78 ± 0.3

CO [methanol]
Settings	mass density [kg/m3]	refractive index
[3]	–	1.3261 ± 0.0005
[4]	786.4 ± 0.15	–

COC=O [methyl methanoate]
Settings	mass density [kg/m3]	refractive index
[3]	–	1.3411 ± 0.0005
[4]	966.28 ± 0.18	–

CO [methanol] + CCCCC(=O)OC
Settings	mass density [kg/m3]
[2], x2 = 0	786.4 ± 0.15

CCCCC(=O)OC [methyl pentanoate]
Settings	mass density [kg/m3]	refractive index
[3]	–	1.3952 ± 0.0005
[4]	884.78 ± 0.3	–

COC=O [methyl methanoate] + CO
Settings	excess molar enthalpy, [1] [kJ/mol]	mass density, [2] [kg/m3]
x1 = 0.02	0.075 ± 0.002	–
x1 = 0.0337	–	795.73 ± 0.18
x1 = 0.0487	0.179 ± 0.004	–
x1 = 0.0833	0.311 ± 0.007	808.8 ± 0.18
x1 = 0.1225	0.441 ± 0.01	–
x1 = 0.1557	–	826.74 ± 0.17
x1 = 0.167	0.577 ± 0.013	–
x1 = 0.19	–	834.77 ± 0.16
x1 = 0.2135	0.703 ± 0.015	–
x1 = 0.2499	–	848.14 ± 0.16
x1 = 0.2613	0.817 ± 0.018	–
x1 = 0.3086	0.914 ± 0.02	–
x1 = 0.3219	–	863.26 ± 0.15
x1 = 0.3501	0.987 ± 0.021	–
x1 = 0.3644	1.01 ± 0.022	–
x1 = 0.3906	–	876.73 ± 0.15
x1 = 0.3943	1.05 ± 0.023	–
x1 = 0.4077	1.07 ± 0.023	–
x1 = 0.4572	1.13 ± 0.024	–
x1 = 0.4946	–	895.61 ± 0.15
x1 = 0.5127	1.18 ± 0.025	–
x1 = 0.5416	–	903.58 ± 0.15
x1 = 0.5783	1.2 ± 0.026	–
x1 = 0.646	1.18 ± 0.025	–
x1 = 0.6467	–	920.31 ± 0.15
x1 = 0.7178	1.1 ± 0.024	–
x1 = 0.7271	–	932.1 ± 0.16
x1 = 0.7815	–	939.62 ± 0.16
x1 = 0.7842	0.984 ± 0.021	–
x1 = 0.8517	0.808 ± 0.017	–
x1 = 0.8533	–	949.01 ± 0.17
x1 = 0.8968	–	954.39 ± 0.17
x1 = 0.9098	0.584 ± 0.013	–
x1 = 0.9357	–	959.02 ± 0.18
x1 = 0.9505	0.339 ± 0.008	–
x1 = 1	–	966.28 ± 0.18

CCCCC(=O)OC [methyl pentanoate] + CO
Settings	excess molar enthalpy [kJ/mol]	mass density [kg/m3]
[1], x1 = 0.0244	0.083 ± 0.003	–
[1], x1 = 0.0512	0.169 ± 0.004	–
[1], x1 = 0.0839	0.277 ± 0.006	–
[1], x1 = 0.1195	0.383 ± 0.008	–
[1], x1 = 0.1562	0.485 ± 0.011	–
[1], x1 = 0.192	0.578 ± 0.013	–
[1], x1 = 0.2279	0.665 ± 0.014	–
[1], x1 = 0.264	0.736 ± 0.016	–
[1], x1 = 0.2993	0.819 ± 0.018	–
[1], x1 = 0.3336	0.876 ± 0.019	–
[1], x1 = 0.367	0.921 ± 0.02	–
[1], x1 = 0.3861	0.947 ± 0.02	–
[1], x1 = 0.4156	0.99 ± 0.021	–
[1], x1 = 0.4625	1.05 ± 0.023	–
[1], x1 = 0.5081	1.09 ± 0.023	–
[1], x1 = 0.5867	1.09 ± 0.023	–
[1], x1 = 0.6887	1.01 ± 0.022	–
[1], x1 = 0.7931	0.812 ± 0.018	–
[1], x1 = 0.8868	0.533 ± 0.012	–
[1], x1 = 0.957	0.24 ± 0.006	–
[2], x1 = 0.0235	–	793.56 ± 0.19
[2], x1 = 0.062	–	803.85 ± 0.18
[2], x1 = 0.0741	–	806.78 ± 0.18
[2], x1 = 0.1314	–	818.95 ± 0.17
[2], x1 = 0.1512	–	822.61 ± 0.16
[2], x1 = 0.2017	–	830.95 ± 0.16
[2], x1 = 0.248	–	837.51 ± 0.16
[2], x1 = 0.304	–	844.36 ± 0.16
[2], x1 = 0.3501	–	849.28 ± 0.16
[2], x1 = 0.4499	–	858.16 ± 0.17
[2], x1 = 0.5121	–	862.75 ± 0.18
[2], x1 = 0.6073	–	868.69 ± 0.19
[2], x1 = 0.6865	–	872.86 ± 0.21
[2], x1 = 0.7472	–	875.67 ± 0.22
[2], x1 = 0.7884	–	877.42 ± 0.23
[2], x1 = 0.7982	–	877.81 ± 0.24
[2], x1 = 0.8786	–	880.85 ± 0.26
[2], x1 = 0.963	–	883.66 ± 0.29
[2], x1 = 1	–	884.78 ± 0.3

CO [methanol] + COC=O
Settings	mass density [kg/m3]
[2], x2 = 0	786.4 ± 0.15

COC=O [methyl methanoate] + CCCCC(=O)OC
Settings	mass density [kg/m3]
[2], x2 = 0	966.28 ± 0.18

Source: the NIST ThermoML archive (doi:10.1016/j.jct.2015.02.019)
